This is an account of results in the RepoRT retention time repository (doi:10.1016/j.foodchem.2021.129757).

One series is described as follows: Other, Phenomenex Kinetex PFP, 100 × 4.6 mm, 5 µm, 45 °C, 0.6 mL/min, estimated dead time 1.8 min; A: water + 0.1% trifluoroacetic acid, pH 2; B: methanol; gradient (min/%B) 0/40 20/72 21/40. Conditions: stereoisomer not certain.
For the compound `O=C(O)c1cccc(O)c1` [3-Hydroxybenzoic acid], the LC retention time was 5.57 min.

Consider `O=C(OC1Cc2c(O)cc(O)cc2OC1c1ccc(O)c(O)c1)c1cc(O)c(O)c(O)c1` (centres undefined) [Epicatechin gallate], for which the LC retention time was 5.76 min.

Turning to `O=C1CC(c2ccc(O)c(O)c2)Oc2cc(O)cc(O)c21` (centres undefined) [Eriodictyol], the LC retention time was 15.4 min.

Another series in a line: RP, 150 × 2.1 mm, 2.6 µm, 40 °C, 0.35 mL/min, estimated dead time 0.94 min; A: water + 0.1% formic acid, pH 3; B: acetonitrile + 0.1% formic acid, pH 3; gradient (min/%B) 0/0 1/0 12.5/100 14/100 14.2/0 15/0. The settings on record: stereoisomer not certain.
For the compound `O=C(O)c1cc(O)ccc1O` [Gentisic acid], the LC retention time was 4.7 min.

As for `COc1cc(C(=O)O)cc(OC)c1O` [Syringic acid], the LC retention time is 5.04 min.

Turning to `O=C(C=Cc1ccc(O)c(O)c1)OC1C(O)CC(O)(C(=O)O)CC1O` (centres undefined) [Cryptochlorogenic acid], the LC retention time is 4.63 min.

Take `O=C(OC1Cc2c(O)cc(O)cc2OC1c1ccc(O)c(O)c1)c1cc(O)c(O)c(O)c1` (centres undefined) [Epicatechin gallate]: the LC retention time is 5.67 min.

For the compound `O=C1CC(c2ccc(O)c(O)c2)Oc2cc(O)cc(O)c21` (centres undefined) [Eriodictyol], the LC retention time was 6.95 min.

For the compound `O=C(OC1Cc2c(O)cc(O)cc2OC1c1cc(O)c(O)c(O)c1)c1cc(O)c(O)c(O)c1` (single isomer, unassigned; (-)) [(-)-Epigallocatechin gallate], the LC retention time was 5.08 min.

As for `O=C(O)C=Cc1ccccc1O` [o-Coumaric acid], the LC retention time was 6.29 min.

`CC1OC(Oc2c(-c3ccc(O)c(O)c3)oc3cc(O)cc(O)c3c2=O)C(O)C(O)C1O` (centres undefined) [Quercitrin]: the LC retention time was 6.01 min.

The next series can be described thus: RP, 150 × 2.1 mm, 2.6 µm, 40 °C, 0.35 mL/min, estimated dead time 0.94 min; A: water + 0.1% formic acid, pH 3; B: acetonitrile + 0.1% formic acid, pH 3; gradient (min/%B) 0/0 1/5 7/45 8.5/80 10.5/80 11/5 12/5. The settings on record: stereoisomer not certain.
`O=C(O)c1cc(O)ccc1O` [Gentisic acid]: the LC retention time was 4.37 min.

As to `COc1cc(C(=O)O)cc(OC)c1O` [Syringic acid], the LC retention time was 4.88 min.

Consider `O=C(C=Cc1ccc(O)c(O)c1)OC1C(O)CC(O)(C(=O)O)CC1O` (centres undefined) [Cryptochlorogenic acid], for which the LC retention time is 4.45 min.

Consider `O=C(OC1Cc2c(O)cc(O)cc2OC1c1ccc(O)c(O)c1)c1cc(O)c(O)c(O)c1` (centres undefined) [Epicatechin gallate], for which the LC retention time was 5.72 min.

As for `O=C1CC(c2ccc(O)c(O)c2)Oc2cc(O)cc(O)c21` (centres undefined) [Eriodictyol], the LC retention time is 7.21 min.

In the case of `O=C(OC1Cc2c(O)cc(O)cc2OC1c1cc(O)c(O)c(O)c1)c1cc(O)c(O)c(O)c1` (single isomer, unassigned; (-)) [(-)-Epigallocatechin gallate], the LC retention time was 5.02 min.

With `O=C(O)C=Cc1ccccc1O` [o-Coumaric acid], the LC retention time is 6.36 min.

In the case of `CC1OC(Oc2c(-c3ccc(O)c(O)c3)oc3cc(O)cc(O)c3c2=O)C(O)C(O)C1O` (centres undefined) [Quercitrin], the LC retention time is 6.17 min.

The next series is described as follows: RP, Phenomenex Kinetex EVO C18, 100 × 2.1 mm, 2.6 µm, 40 °C, 0.4 mL/min, estimated dead time 0.55 min; A: water + 0.2% formic acid; B: acetonitrile + 0.2% formic acid; gradient (min/%B) 0/5 0.5/5 7/95 8/95 8.5/5 12/5. The settings on record: stereoisomer not certain.
Consider `O=C(O)C1OC(Oc2c(-c3ccc(O)c(O)c3)oc3cc(O)cc(O)c3c2=O)C(O)C(O)C1O` (centres undefined) [Quercetin-3-O-glucuronide], for which the LC retention time was 4.92 min.

Turning to `O=C(OC1Cc2c(O)cc(O)cc2OC1c1cc(O)c(O)c(O)c1)c1cc(O)c(O)c(O)c1` (single isomer, unassigned; (-)) [(-)-Epigallocatechin gallate], the LC retention time is 4.38 min.

Another series is described as follows: RP, Waters ACQUITY UPLC HSS T3, 100 × 2.1 mm, 50 °C; A: water + 0.1% formic acid, pH 3; B: 30% methanol + 70% acetonitrile + 0.1% formic acid, pH 3; gradient (min/%B) 0/5 1/8 2/15 3/40 4/70 4.5/100 5/100 6.4/100 6.6/5 6.8/5 7/5. Conditions: stereoisomer not certain.
With `O=C(O)C=Cc1ccccc1` [Cinnamic acid-trans], the LC retention time was found to be 2.74 min.

For the compound `COc1cc(C(=O)O)cc(OC)c1O` [Syringic acid], the LC retention time turned out to be 3.33 min.

A short description of a further series: RP, Merck LiChrospher RP-18, 250 × 4 mm, 5 µm, 35 °C, 0.3 mL/min, estimated dead time 6.7 min; A: water + 0.5% formic acid; B: acetonitrile + 0.5% formic acid; gradient (min/%B) 0/5 10/5 30/15 45/20 65/20 95/54 110/63 115/5 135/5. The settings on record: stereoisomer not certain.
Take `O=C(O)C=Cc1ccccc1` [Cinnamic acid-trans]: the LC retention time is 92.9 min.

As to `O=C(OC1Cc2c(O)cc(O)cc2OC1c1ccc(O)c(O)c1)c1cc(O)c(O)c(O)c1` (centres undefined) [Epicatechin gallate], the LC retention time was 58.6 min.

Turning to `O=c1cc(-c2ccc(O)cc2)oc2cc(O)cc(O)c12` [Apigenin], the LC retention time was 97 min.

As for `O=C1CC(c2ccc(O)c(O)c2)Oc2cc(O)cc(O)c21` (centres undefined) [Eriodictyol], the LC retention time was 88.7 min.

Regarding `O=C(O)C=Cc1ccccc1O` [o-Coumaric acid], the LC retention time is 74.4 min.

The nature of a further series: RP, Waters ACQUITY UPLC HSS T3, 100 × 2.1 mm, 1.8 µm, 30 °C, 0.4 mL/min, estimated dead time 0.55 min; A: water + 0.1% formic acid, pH 3; B: acetonitrile + 0.1% formic acid, pH 3; gradient (min/%B) 0/0 2/0 15/100 22/100 22.1/0 26/0. Conditions: stereoisomer not certain.
As for `O=C(O)c1cc(O)ccc1O` [Gentisic acid], the LC retention time is 8.3 min.

`O=C(OC1Cc2c(O)cc(O)cc2OC1c1ccc(O)c(O)c1)c1cc(O)c(O)c(O)c1` (centres undefined) [Epicatechin gallate]: the LC retention time was 9.36 min.

On to `O=c1c(-c2ccc(O)cc2)coc2cc(O)ccc12` [Daidzein], for which the LC retention time was 10.7 min.

For `O=C1CC(c2ccc(O)c(O)c2)Oc2cc(O)cc(O)c21` (centres undefined) [Eriodictyol], the LC retention time was 10.9 min.

Regarding `O=c1c(O)c(-c2ccc(O)c(O)c2)oc2cc(O)ccc12` [Fisetin], the LC retention time is 10.2 min.

The nature of a further series: RP, Agilent ZORBAX Eclipse XDB-C18, 100 × 2.1 mm, 1.8 µm, 50 °C, 0.4 mL/min, estimated dead time 0.55 min; A: water + 0.1% formic acid, pH 3; B: methanol + 0.1% formic acid, pH 3; gradient (min/%B) 0/2 10/100 14.5/100 14.51/2 16.5/2. Conditions: stereoisomer not certain.
Turning to `O=C(O)c1cc(O)ccc1O` [Gentisic acid], the LC retention time is 2.85 min.

Turning to `O=C(O)C=Cc1ccccc1` [Cinnamic acid-trans], the LC retention time is 6.27 min.

The next series can be described thus: RP, Waters ACQUITY UPLC BEH C18, 100 × 2.1 mm, 1.7 µm, 65 °C, 0.4 mL/min, estimated dead time 0.55 min; A: water + 0.1% formic acid, pH 3; B: 80% acetonitrile + 20% acetone + 0.1% formic acid, pH 3; gradient (min/%B) 0/0 5/100 5.5/0 6/0. Conditions: stereoisomer not certain.
Take `O=C(O)C=Cc1ccccc1` [Cinnamic acid-trans]: the LC retention time is 2.79 min.

As for `COc1cc(C(=O)O)cc(OC)c1O` [Syringic acid], the LC retention time is 1.8 min.

For the compound `O=c1c(-c2ccc(O)cc2)coc2cc(O)ccc12` [Daidzein], the LC retention time was 2.53 min.

Take `O=C1CC(c2ccc(O)c(O)c2)Oc2cc(O)cc(O)c21` (centres undefined) [Eriodictyol]: the LC retention time was 2.59 min.

The next series in a line: RP, Waters ACQUITY UPLC BEH Shield RP18, 150 × 2.1 mm, 1.7 µm, 40 °C, 0.4 mL/min, estimated dead time 0.83 min; A: water + 0.1% formic acid, pH 3; B: acetonitrile + 0.1% formic acid, pH 3; gradient (min/%B) 0/0 30/50 31/100 37/100 37.1/0. The settings on record: stereoisomer not certain.
As to `O=C(O)C1OC(Oc2c(-c3ccc(O)c(O)c3)oc3cc(O)cc(O)c3c2=O)C(O)C(O)C1O` (centres undefined) [Quercetin-3-O-glucuronide], the LC retention time is 13.7 min.

For the compound `O=C(O)c1cc(O)ccc1O` [Gentisic acid], the LC retention time is 6.28 min.

Take `O=C(O)C=Cc1ccccc1` [Cinnamic acid-trans]: the LC retention time is 16.2 min.

As for `O=c1c(-c2ccc(O)cc2)coc2cc(O)ccc12` [Daidzein], the LC retention time was 17.9 min.

With `O=c1cc(-c2ccc(O)cc2)oc2cc(O)cc(O)c12` [Apigenin], the LC retention time is 23.6 min.
